# Measured values from ChEMBL document CHEMBL4138172, “Synthesis of bis-indolylmethanes as new potential inhibitors of β-glucuronidase and their molecular docking studies” (Eur J Med Chem, 2018).
# Molecular target: T1, Beta-glucuronidase (Homo sapiens, UniProt P08236)
# T1 sequence (P08236 whole entry): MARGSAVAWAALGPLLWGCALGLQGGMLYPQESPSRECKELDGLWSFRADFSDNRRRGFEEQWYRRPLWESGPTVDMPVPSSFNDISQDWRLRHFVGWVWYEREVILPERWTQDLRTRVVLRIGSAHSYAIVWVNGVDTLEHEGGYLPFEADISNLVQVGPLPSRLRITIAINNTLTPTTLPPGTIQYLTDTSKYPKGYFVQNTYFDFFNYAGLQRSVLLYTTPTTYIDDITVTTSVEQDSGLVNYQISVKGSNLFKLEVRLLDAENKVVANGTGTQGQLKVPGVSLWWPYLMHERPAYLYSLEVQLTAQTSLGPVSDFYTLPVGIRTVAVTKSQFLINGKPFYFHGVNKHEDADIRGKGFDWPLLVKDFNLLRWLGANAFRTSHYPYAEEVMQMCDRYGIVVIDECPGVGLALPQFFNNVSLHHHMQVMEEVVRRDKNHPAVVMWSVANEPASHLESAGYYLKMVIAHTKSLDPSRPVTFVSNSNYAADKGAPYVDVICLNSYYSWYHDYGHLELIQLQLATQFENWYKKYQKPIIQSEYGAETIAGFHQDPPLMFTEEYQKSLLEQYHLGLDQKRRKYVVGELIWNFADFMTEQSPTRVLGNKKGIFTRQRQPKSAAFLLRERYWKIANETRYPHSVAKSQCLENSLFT
# Test: Inhibition of human beta-glucuronidase
row,SMILES,IC50
1,Cc1ccc(C(c2c[nH]c3ccc(C(=O)N/N=C/c4ccccn4)cc23)c2c[nH]c3ccc(C(=O)N/N=C/c4ccccn4)cc23)cc1,13.1 µM
2,Cc1ccc(/C=N/NC(=O)c2ccc3[nH]cc(C(c4ccc(C)cc4)c4c[nH]c5ccc(C(=O)N/N=C/c6ccc(C)cc6)cc45)c3c2)cc1,12.5 µM
3,Cc1ccc(C(c2c[nH]c3ccc(C(=O)N/N=C/c4ccccc4C)cc23)c2c[nH]c3ccc(C(=O)N/N=C/c4ccccc4C)cc23)cc1,22.2 µM
4,Cc1ccc(C(c2c[nH]c3ccc(C(=O)N/N=C/c4cccc([N+](=O)[O-])c4)cc23)c2c[nH]c3ccc(C(=O)N/N=C/c4cccc([N+](=O)[O-])c4)cc23)cc1,7.57 µM
5,Cc1ccc(C(c2c[nH]c3ccc(C(=O)N/N=C/c4ccccc4[N+](=O)[O-])cc23)c2c[nH]c3ccc(C(=O)N/N=C/c4ccccc4[N+](=O)[O-])cc23)cc1,48.5 µM
6,Cc1ccc(C(c2c[nH]c3ccc(C(=O)N/N=C/c4cccnc4)cc23)c2c[nH]c3ccc(C(=O)N/N=C/c4cccnc4)cc23)cc1,32.9 µM
7,Cc1ccc(C(c2c[nH]c3ccc(C(=O)N/N=C/c4cccc(Cl)c4)cc23)c2c[nH]c3ccc(C(=O)N/N=C/c4cccc(Cl)c4)cc23)cc1,6.9 µM
8,Cc1ccc(C(c2c[nH]c3ccc(C(=O)N/N=C/c4ccc(Cl)cc4)cc23)c2c[nH]c3ccc(C(=O)N/N=C/c4ccc(Cl)cc4)cc23)cc1,5.8 µM
9,COc1ccc(/C=N/NC(=O)c2ccc3[nH]cc(C(c4ccc(C)cc4)c4c[nH]c5ccc(C(=O)N/N=C/c6ccc(OC)cc6)cc45)c3c2)cc1,32.8 µM
10,Cc1ccc(C(c2c[nH]c3ccc(C(=O)N/N=C/c4ccccc4F)cc23)c2c[nH]c3ccc(C(=O)N/N=C/c4ccccc4F)cc23)cc1,1.2 µM
11,Cc1ccc(C(c2c[nH]c3ccc(C(=O)N/N=C/c4cccc(C)c4)cc23)c2c[nH]c3ccc(C(=O)N/N=C/c4cccc(C)c4)cc23)cc1,33.5 µM
12,Cc1ccc(C(c2c[nH]c3ccc(C(=O)N/N=C/c4ccccc4)cc23)c2c[nH]c3ccc(C(=O)N/N=C/c4ccccc4)cc23)cc1,42.8 µM
13,Cc1ccc(C(c2c[nH]c3ccc(C(=O)N/N=C/C=C/c4ccccc4)cc23)c2c[nH]c3ccc(C(=O)N/N=C/C=C/c4ccccc4)cc23)cc1,2.98 µM
14,Cc1ccc(C(c2c[nH]c3ccc(C(=O)N/N=C/c4ccncc4)cc23)c2c[nH]c3ccc(C(=O)N/N=C/c4ccncc4)cc23)cc1,23.4 µM
15,Cc1ccc(C(c2c[nH]c3ccc(C(=O)N/N=C/c4ccccc4Cl)cc23)c2c[nH]c3ccc(C(=O)N/N=C/c4ccccc4Cl)cc23)cc1,2.8 µM
16,Cc1ccc(C(c2c[nH]c3ccc(C(=O)N/N=C/c4cccc(F)c4)cc23)c2c[nH]c3ccc(C(=O)N/N=C/c4cccc(F)c4)cc23)cc1,2.2 µM
17,Cc1ccc(C(c2c[nH]c3ccc(C(=O)N/N=C/c4ccc(F)cc4)cc23)c2c[nH]c3ccc(C(=O)N/N=C/c4ccc(F)cc4)cc23)cc1,2.8 µM

# The remaining lines, values ahead:
row,IC50,SMILES
1,1.14 µM,Cc1ccc(C(c2c[nH]c3ccc(C(=O)N/N=C/c4cc(O)ccc4O)cc23)c2c[nH]c3ccc(C(=O)N/N=C/c4cc(O)ccc4O)cc23)cc1
2,5.87 µM,Cc1ccc(C(c2c[nH]c3ccc(C(=O)N/N=C/c4cccc(O)c4)cc23)c2c[nH]c3ccc(C(=O)N/N=C/c4cccc(O)c4)cc23)cc1
3,2.1 µM,COc1ccc(O)c(/C=N/NC(=O)c2ccc3[nH]cc(C(c4ccc(C)cc4)c4c[nH]c5ccc(C(=O)N/N=C/c6cc(OC)ccc6O)cc45)c3c2)c1
4,15.8 µM,Cc1ccc(C(c2c[nH]c3ccc(C(=O)N/N=C/c4ccc(F)c(Br)c4)cc23)c2c[nH]c3ccc(C(=O)N/N=C/c4ccc(F)c(Br)c4)cc23)cc1
5,2.35 µM,Cc1ccc(C(c2c[nH]c3ccc(C(=O)N/N=C/c4ccc(O)cc4)cc23)c2c[nH]c3ccc(C(=O)N/N=C/c4ccc(O)cc4)cc23)cc1
6,43.5 µM,COc1ccc(/C=N/NC(=O)c2ccc3[nH]cc(C(c4ccc(C)cc4)c4c[nH]c5ccc(C(=O)N/N=C/c6ccc(OC)c(O)c6I)cc45)c3c2)c(I)c1O
7,0.1 µM,Cc1ccc(C(c2c[nH]c3ccc(C(=O)N/N=C/c4cc(O)c(O)cc4O)cc23)c2c[nH]c3ccc(C(=O)N/N=C/c4cc(O)c(O)cc4O)cc23)cc1
8,2.67 µM,COc1ccc(/C=N/NC(=O)c2ccc3[nH]cc(C(c4ccc(C)cc4)c4c[nH]c5ccc(C(=O)N/N=C/c6ccc(OC)c(O)c6)cc45)c3c2)cc1O
9,0.1 µM,Cc1ccc(C(c2c[nH]c3ccc(C(=O)N/N=C/c4cccc(O)c4O)cc23)c2c[nH]c3ccc(C(=O)N/N=C/c4cccc(O)c4O)cc23)cc1
10,3.45 µM,COc1ccc(/C=N/NC(=O)c2ccc3[nH]cc(C(c4ccc(C)cc4)c4c[nH]c5ccc(C(=O)N/N=C/c6ccc(OC)cc6O)cc45)c3c2)c(O)c1
11,1.1 µM,Cc1ccc(C(c2c[nH]c3ccc(C(=O)N/N=C/c4ccc(Cl)cc4Cl)cc23)c2c[nH]c3ccc(C(=O)N/N=C/c4ccc(Cl)cc4Cl)cc23)cc1
12,0.3 µM,Cc1ccc(C(c2c[nH]c3ccc(C(=O)N/N=C/c4ccc(O)cc4O)cc23)c2c[nH]c3ccc(C(=O)N/N=C/c4ccc(O)cc4O)cc23)cc1
13,0.3 µM,Cc1ccc(C(c2c[nH]c3ccc(C(=O)N/N=C/c4ccc(O)c(O)c4)cc23)c2c[nH]c3ccc(C(=O)N/N=C/c4ccc(O)c(O)c4)cc23)cc1
14,1.5 µM,Cc1ccc(C(c2c[nH]c3ccc(C(=O)N/N=C/c4ccccc4O)cc23)c2c[nH]c3ccc(C(=O)N/N=C/c4ccccc4O)cc23)cc1
15,0.2 µM,Cc1ccc(C(c2c[nH]c3ccc(C(=O)N/N=C/c4c(O)cc(O)cc4O)cc23)c2c[nH]c3ccc(C(=O)N/N=C/c4c(O)cc(O)cc4O)cc23)cc1
